The record followed here is patent US8877946B2, “Benzylidene-indolinone compounds and their medical use” (National University of Singapore, priority 2011, dated 2014).

The test system of assay [1] is Hep G2. Kind of assay: MTT antiproliferative assay on Hep G2 cells. In kind it is cell-based. As to conditions: Homo sapiens, HepG2, 72 h. The source says:
(§1) MTT was purchased from DUCHEFA Biochemie ([…]). Sunitinib, and sodium dodecyl sulfate, bovine serum albuminwere obtained from Sigma Aldrich (Singapore). Sorafenib was purchase from Ontario Chem. Fetal bovine serum (FBS) was obtained from Invitrogen. Human hepatocellular carcinoma cells (HuH-7 and Hep G2), and human diploid fibroblast strain (IMR 90). HuH7 was obtained as gifts from Dr Ho Han Kiat, Department of Pharmacy, NUS. IMR90 and Hep G2 were purchased from American Type Culture Collection (ATCC). HuH-7 cells were cultured in DMEM (Dulbecco's Modified Eagle Medium, high glucose) with 10% v/v fetal bovine serum (FBS), 100 mg/L penicillin G and 100 mg/L streptomycin. IMR 90 cell were cultured in EMEM (Eagle's Minimum Essential Medium), with 10% v/v FBS and 100 mg/L penicillin G and 100 mg/L streptomycin. The cells were sub-cultured when HuH7 or Hep G2 reached a density of 70-80×10^5 cell/T75 flask, and IMR 90 reached 20×10^5 cell/T75 flask. Cells were used within 2-10 passages for viability experiments.
(§2) The anti-proliferative activity of the test compounds were determined by the MTT assay. An aliquot (200 μL, 3×10^4 cells/mL for HuH7, 3.75×10^4 cells/mL for Hep G2, and 2×10^4 cells/mL for IMR 90) of medium was added to each well of the microtitre plate. […] The existing medium was removed from each well and replaced by fresh medium (200 μL) containing a known concentration of test compound. The final concentration of DMSO in each well was maintained at 0.5% v/v. (1% v/v was also utilized if the compounds were not soluble) The test compounds were incubated with the cells for another 72 h at 37 deg C., 5% CO2. The medium was then removed from the well and replaced with FBS free medium (200 μL) and MTT (50 μL of 2 mg/mL solution in phosphate buffer saline, pH 7.4). The phosphate buffer saline comprises 10 mM of potassium phosphate and 137 mM sodium chloride. After incubation (3 h) at 37 deg C., 5% CO2, the supernatant was removed and a solution of 200 μL DMSO and 25 μL Sorenson buffer (0.1 M glycine, 0.1 M sodium chloride, adjusted to pH 10.5 with 0.1 M sodium hydroxide) was added to dissolve the formazan crystals in each well. Vehicle control were cells grown in 1% v/v DMSO/Medium for 72 h, 37 deg C., 5% CO2 while blank controls were wells that contained only 200 μL DMSO and 25 μL Sorenson buffer. Absorbances were measured at 570 nm on a microplate reader (Tecan, Infinite 200). The viability of cells at a given concentration of test compound was determined from the expression:
(§3) [formula] where abs_compound=absorbance of wells containing cells and test compound, abs_vehicle (Not the same as above. Change to abs_vehicle)=absorbance of vehicle control and abs_blank=absorbance of blank control.
(§4) Each concentration of test compound was evaluated at least 3 times on separate occasions, and two different stock solution were used. The IC50 value (concentration that inhibited 50% of cell growth) was determined from the sigmoidal curve obtained by plotting percentage viability versus logarithmic concentration of test compound using GraphPad Prism 5 (San Diego, USA).
In general terms: Formazan colour is commonly taken as a measure of viable cells.

For assay [2], the system named is HuH7 cells. Kind of assay: MTT antiproliferative (growth inhibition) assay on HuH7 cells. In kind it is cell-based, human. As to conditions: Homo sapiens, Huh-7, MTT.
Description: as §1, §2, §3, §4

Setting [3] is: 72 h (Table 9), read-out: IC50 (μM) HuH7.
Where [4] appears, read: 72 h incubation, mean and SD of 3 or more independent determinations (Tables 1-8), read-out: IC 50.

Like-named read-outs stand apart in the source and are kept apart here.

For `CNS(=O)(=O)c1ccc(/C=C2/C(=O)Nc3cc(Cl)ccc32)cc1` [Compound 1-21, (E)-4-(6-Chloro-2-oxo-1,2-dihydro-indol-3-ylidenemethyl)-N-methyl-benzenesulfonamide], the figures for the IC50 in assay [1], in assay [2] (setting [3]) and in assay [2] (setting [4]) were over 30 µM, 15.3 ± 0.6 µM and 15.3 ± 0.6 µM, respectively. On to `CCNS(=O)(=O)c1cccc(/C=C2/C(=O)Nc3cc(Cl)ccc32)c1` [Compound 1-22, (E)-3-(6-Chloro-2-oxo-1,2-dihydro-indol-3-ylidenemethyl)-N-ethyl-benzenesulfonamide], for which the IC50 in assay [1] was found to be 3.96 ± 0.55 µM; in assay [2] (setting [3]) it was 0.84 ± 0.09 µM; in assay [2] (setting [4]), 0.84 ± 0.09 µM. On to `CCCNS(=O)(=O)c1cccc(C=C2C(=O)Nc3cc(Cl)ccc32)c1` [Compound 1-23, E/Z-3-(6-Chloro-2-oxo-1,2-dihydro-indol-3-ylidenemethyl)-N-propyl-benzenesulfonamide], for which the results for the IC50 in assay [1], in assay [2] (setting [3]) and in assay [2] (setting [4]) were 1.51 ± 0.11 µM, 0.36 ± 0.04 µM and 0.36 ± 0.04 µM, respectively. Regarding `CC(C)NS(=O)(=O)c1cccc(C=C2C(=O)Nc3cc(Cl)ccc32)c1` [Compound 1-24, E/Z 3-(6-Chloro-2-oxo-1,2-dihydro-indol-3-ylidenemethyl)-N-isopropyl-benzenesulfonamide], the IC50 in assay [1] is 5.46 ± 0.95 µM; in assay [2] (setting [3]), 1.93 ± 0.34 µM; in assay [2] (setting [4]), 1.93 ± 0.34 µM. `COc1ccc2c(c1)NC(=O)/C2=C/c1cccc(F)c1` [Compound 5-3, (E)-3-(3-Fluoro-benzylidene)-6-methoxy-1,3-dihydro-indol-2-one]: in assay [2] (setting [4]), the IC50 is 0.71 ± 0.07 µM.

On to `COc1ccc2c(c1)NC(=O)/C2=C/c1ccc(F)cc1` [Compound 5-4, (E)-3-(4-Fluorobenzylidene)-6-methoxy-1,3-dihydro-indol-2-one], for which, in assay [2] (setting [4]), the IC50 came to 5.36 ± 0.14 µM.

`COc1ccc2c(c1)NC(=O)/C2=C/c1ccccc1C(F)(F)F` [Compound 5-5, (E) 6-Methoxy-3-(2-trifluoromethyl-benzylidene)-1,3-dihydro-indol-2-one]: the IC50 in assay [2] (setting [4]) was determined as 7.04 ± 0.8 µM.

For the molecule `COc1ccc2c(c1)NC(=O)/C2=C/c1cccc(C(F)(F)F)c1` [Compound 5-6, (E)-6-Methoxy-3-(3-trifluoromethyl-benzylidene)-1,3-dihydro-indol-2-one, reference compound], the IC50 in assay [2] (setting [4]) was found to be 1.2 ± 0.05 µM. Still for that read-out and setting: in the case of `COc1ccc2c(c1)NC(=O)/C2=C/c1ccc(C(F)(F)F)cc1` [Compound 5-7, (E)-6-Methoxy-3-(4-trifluoromethyl-benzylidene)-1,3-dihydro-indol-2-one] it was over 30 µM; in that of `CNS(=O)(=O)c1cccc(/C=C2/C(=O)Nc3cc(OC)ccc32)c1` [Compound 5-8, (E)-3-(6-Methoxy-2-oxo-1,2-dihydro-indol-3-ylidenemethyl)-N-methyl-benzenesulphonamide], 0.17 ± 0.02 µM. On the same count and under the same terms, in the case of `O=C1Nc2ccc(F)c(F)c2/C1=C/c1ccccc1` [Compound 6-1, (Z)-3-Benzylidene-4,5-difluoro-1,3-dihydro-indol-2-one] it was 31.1 ± 2.12 µM; in that of `O=C1Nc2ccc(F)c(F)c2/C1=C/c1ccccc1F` [Compound 6-2, (Z)-4,5-Difluoro-3-(2-fluoro-benzylidene)-1,3-dihydro-indol-2-one], 16.9 ± 1.67 µM. Same read-out and setting: with `O=C1Nc2ccc(F)c(F)c2/C1=C/c1cccc(F)c1` [Compound 6-3, (Z)-4,5-Difluoro-3-(3-fluoro-benzylidene)-1,3-dihydro-indol-2-one] the figure was 15.9 ± 1.14 µM; with `O=C1Nc2ccc(F)c(F)c2/C1=C/c1ccc(F)cc1` [Compound 6-4, (Z)-4,5-Difluoro-3-(4-fluoro-benzylidene)-1,3-dihydro-indol-2-one], 14 ± 0.73 µM.

On to `O=C1Nc2ccc(F)c(F)c2/C1=C/c1ccc(C(F)(F)F)cc1` [Compound 6-7, (Z)-4,5-Difluoro-3-(4-trifluoromethyl-benzylidene)-1,3-dihydro-indol-2-one], for which the IC50 in assay [2] (setting [4]) was over 30 µM. On the same count and under the same terms, in the case of `O=C1Nc2ccc(F)c(F)c2/C1=C/c1cccc(OC(F)(F)F)c1` [Compound 6-8, (Z)-4,5-Difluoro-3-(3-trifluoromethoxyl-benzylidene)-1,3-dihydro-indol-2-one] it was 2.94 ± 0.26 µM.

With `CNS(=O)(=O)c1cccc(/C=C2\C(=O)Nc3ccc(F)c(F)c32)c1` [Compound 6-10, (Z)-3-(4,5-Difluoro-2-oxo-1,2-dihydro-indol-3-ylidenemethyl)-N-methyl-benzenesulphonamide], the IC50 in assay [2] (setting [4]) turned out to be 15.8 ± 3.37 µM. Regarding `O=C1Nc2cc(F)c(F)cc2/C1=C\c1ccccc1` [Compound 7-1, (E)-3-Benzylidene-5,6-difluoro-1,3-dihydro-indol-2-one], the IC50 in assay [2] (setting [4]) is over 30 µM.

On to `O=C1Nc2cc(F)c(F)cc2/C1=C\c1ccccc1F` [Compound 7-2, (E)-5,6-Difluoro-3-(2-fluoro-benzylidene)-1,3-dihydro-indol-2-one], for which the IC50 in assay [2] (setting [4]) was over 30 µM. Consider `O=C1Nc2cc(F)c(F)cc2/C1=C\c1cccc(F)c1` [Compound 7-3, (E)-5,6-Difluoro-3-(3-fluorobenzylidene)-1,3-dihydro-indol-2-one], for which, in assay [2] (setting [4]), the IC50 was 19.2 ± 3.25 µM. Same read-out and setting: with `O=C1Nc2cc(F)c(F)cc2/C1=C\c1ccccc1C(F)(F)F` [Compound 7-5, (E)-5,6-Difluoro-3-(2-trifluoromethyl-benzylidene)-1,3-dihydro-indol-2-one] the figure was over 30 µM; with `O=C1Nc2cc(F)c(F)cc2/C1=C\c1ccc(C(F)(F)F)cc1` [Compound 7-7, (E)-5,6-Difluoro-3-(4-(trifluoromethyl)benzylidene)-1,3-dihydro-indol-2-one], 10.6 ± 0.68 µM; with `O=C1Nc2cc(F)c(F)cc2/C1=C\c1cccc(OC(F)(F)F)c1` [Compound 7-8, (E)-5,6-Difluoro-3-(3-trifluoromethoxyl-benzylidene)-1,3-dihydro-indol-2-one], 5.61 ± 0.26 µM. As for `CS(=O)(=O)c1cccc(/C=C2/C(=O)Nc3cc(F)c(F)cc32)c1` [Compound 7-9, (E)-5,6-Difluoro-3-(3-methanesulfonylbenzylidene)-1,3-dihydro-indol-2-one], the IC50 in assay [2] (setting [4]) is 13.9 ± 2.03 µM. The same measure, in the same setting: in the case of `CNS(=O)(=O)c1cccc(C=C2C(=O)Nc3cc(F)c(F)cc32)c1` [Compound 7-10] it was 2.76 ± 0.16 µM; in that of `O=C1Nc2ccccc2/C1=C\c1cccc(C(F)(F)F)c1` [Compound 8-1, (E) 3-(3-Trifluoromethyl-benzylidene)-1,3-dihydro-indol-2-one], 5.56 ± 0.06 µM. Same read-out and setting: in the case of `O=C1Nc2ccccc2C1=Nc1cccc(C(F)(F)F)c1` [Compound 8-2, (E/Z) 3-(3-Trifluoromethyl-phenylimino)-1,3-dihydro-indol-2-one] it was over 30 µM; in that of `CN1C(=O)/C(=C/c2cccc(C(F)(F)F)c2)c2ccccc21` [Compound 8-3, (E)-1-Methyl-3-(3-trifluoromethyl-benzylidene)-1,3-dihydro-indol-2-one], 6.74 ± 1.23 µM. Still for that read-out and setting: with `O=C1Nc2cc(Cl)ccc2C1=Nc1cccc(C(F)(F)F)c1` [Compound 8-4, (E/Z) 6-Chloro-3-(3-trifluoromethyl-phenylimino)-1,3-dihydro-indol-2-one] the figure was 20.1 ± 1.72 µM; with `CN1C(=O)/C(=C/c2cccc(C(F)(F)F)c2)c2ccc(Cl)cc21` [Compound 8-5, (E)-6-Chloro-1-methyl-3-(3-trifluoromethyl-benzylidene)-1,3-dihydro-indol-2-one], 1.14 ± 0.19 µM. Turning to `O=C1Nc2ccc(Cl)cc2C1=Nc1cccc(C(F)(F)F)c1` [Compound 8-6, (E/Z) 5-Chloro-3-(3-trifluoromethyl-phenylimino)-1,3-dihydro-indol-2-one], in assay [2] (setting [4]), the IC50 came to 20.3 ± 3.53 µM. On the same count and under the same terms, in the case of `O=C1Nc2ccc(F)cc2C1=Nc1cccc(C(F)(F)F)c1` [Compound 8-7, (E/Z)-5-Fluoro-3-(3-trifluoromethyl-phenylimino)-1,3-dihydro-indol-2-one] it was 23.13 ± 0.21 µM.
